This test has as its target T1, N-type calcium channel α1B (Cav2.2), β3 and α2δ subunits (Homo sapiens, UniProt Q00975).
T1 construct: expressed in transfected cells
Briefly: Functional assay, antagonism of N-type calcium channel (FDSS calcium mobilization response to KCl depolarization). It counts as cell-based. Particulars: for pIC50: HEK stable cell line, 50 mM KCl depolarization, six-point concentration-response; for inhibition at 1 µM: 1 μM compound; for inhibition at 1 µM / inhibition at 0.33 µM: FDSS, 50 mM KCl; for inhibition at 0.33 µM: 0.33 μM compound. The method, then:
A stable cell line (HEK parent) co-expressing the α1B (Cav2.2), β3 and α2δ subunits of the N-type calcium channel subunits was used. These cells were routinely grown as monolayers in low glucose-containing Dulbecco's Modified Eagle Medium supplemented with 10% FBS, 2 mM L-glutamine, 100 I.U./mL penicillin, 100 μg/mL streptomycin, 400 μg/mL G418 and 200 μg/mL Zeocin (split ratio=1:5). Cells were maintained in 5% CO2 at 37° C. Compounds of Formula (I) were prepared as 10 mM stocks in DMSO from neat compound, if available. Otherwise, the 5 or 10 mM DMSO stock solutions provided in-house were used.
Calcium mobilization responses to KCl depolarization were evaluated by measuring the intensity of calcium-mediated fluorescent signal in the presence of BD Calcium Assay Dye (BD Biosciences, Franklin Lakes, N.J., U.S.A.), utilizing a Functional Drug Screening System (FDSS) by Hamamatsu Corporation (Bridgewater, N.J. U.S.A.).
Twenty-four hr prior to assay, cells were seeded in clear-base poly-D-lysine-coated 384-well plates (BD Biosciences) at a density of 5,000 cells per well in culture medium and grown overnight in 5% CO2 at 37° C. On the day of assay, growth media were removed, and cells were loaded with BD calcium assay dye (BD Biosciences) for 35 min at 37° C. under 5% CO2 and then for 25 min at room temp. Utilizing the FDSS, cells were exposed to representative compounds of Formula (I) at varying concentrations, and intracellular calcium was measured for 5 min prior to the addition of 50 mM KCl for an additional 3 min of measurement.
IC50 values for representative compounds of Formula (I) were determined from six-point concentration-response experiments and represent the concentration of said compound required to inhibit 50% of the maximal response. Maximal fluorescence intensity (FI) achieved upon addition of 50 mM KCl was exported from the FDSS software and further analyzed using GraphPad Prism 3.02 (Graph Pad Software Inc., San Diego, Calif., U.S.A.). Data were normalized to the maximum average counts from quadruplicate wells for each condition in the presence of 50 mM KCl and to the minimum average counts in the presence of buffer. Theoretical curves were generated using nonlinear regression curve-fitting analysis of either sigmoidal concentration-response or sigmoidal concentration-response (variable slope), and the IC50 values with the best-fit curve determined by GraphPad Prism were reported.

Results on 22 molecules are retold here after patent US8846949B2, “Pyrrolopyrazoles as N-type calcium channel blockers” (Janssen Pharmaceutica NV, priority 2012, dated 2014).

pIC50: −log10 of the molar value.

T1 sequence (Q00975 whole entry): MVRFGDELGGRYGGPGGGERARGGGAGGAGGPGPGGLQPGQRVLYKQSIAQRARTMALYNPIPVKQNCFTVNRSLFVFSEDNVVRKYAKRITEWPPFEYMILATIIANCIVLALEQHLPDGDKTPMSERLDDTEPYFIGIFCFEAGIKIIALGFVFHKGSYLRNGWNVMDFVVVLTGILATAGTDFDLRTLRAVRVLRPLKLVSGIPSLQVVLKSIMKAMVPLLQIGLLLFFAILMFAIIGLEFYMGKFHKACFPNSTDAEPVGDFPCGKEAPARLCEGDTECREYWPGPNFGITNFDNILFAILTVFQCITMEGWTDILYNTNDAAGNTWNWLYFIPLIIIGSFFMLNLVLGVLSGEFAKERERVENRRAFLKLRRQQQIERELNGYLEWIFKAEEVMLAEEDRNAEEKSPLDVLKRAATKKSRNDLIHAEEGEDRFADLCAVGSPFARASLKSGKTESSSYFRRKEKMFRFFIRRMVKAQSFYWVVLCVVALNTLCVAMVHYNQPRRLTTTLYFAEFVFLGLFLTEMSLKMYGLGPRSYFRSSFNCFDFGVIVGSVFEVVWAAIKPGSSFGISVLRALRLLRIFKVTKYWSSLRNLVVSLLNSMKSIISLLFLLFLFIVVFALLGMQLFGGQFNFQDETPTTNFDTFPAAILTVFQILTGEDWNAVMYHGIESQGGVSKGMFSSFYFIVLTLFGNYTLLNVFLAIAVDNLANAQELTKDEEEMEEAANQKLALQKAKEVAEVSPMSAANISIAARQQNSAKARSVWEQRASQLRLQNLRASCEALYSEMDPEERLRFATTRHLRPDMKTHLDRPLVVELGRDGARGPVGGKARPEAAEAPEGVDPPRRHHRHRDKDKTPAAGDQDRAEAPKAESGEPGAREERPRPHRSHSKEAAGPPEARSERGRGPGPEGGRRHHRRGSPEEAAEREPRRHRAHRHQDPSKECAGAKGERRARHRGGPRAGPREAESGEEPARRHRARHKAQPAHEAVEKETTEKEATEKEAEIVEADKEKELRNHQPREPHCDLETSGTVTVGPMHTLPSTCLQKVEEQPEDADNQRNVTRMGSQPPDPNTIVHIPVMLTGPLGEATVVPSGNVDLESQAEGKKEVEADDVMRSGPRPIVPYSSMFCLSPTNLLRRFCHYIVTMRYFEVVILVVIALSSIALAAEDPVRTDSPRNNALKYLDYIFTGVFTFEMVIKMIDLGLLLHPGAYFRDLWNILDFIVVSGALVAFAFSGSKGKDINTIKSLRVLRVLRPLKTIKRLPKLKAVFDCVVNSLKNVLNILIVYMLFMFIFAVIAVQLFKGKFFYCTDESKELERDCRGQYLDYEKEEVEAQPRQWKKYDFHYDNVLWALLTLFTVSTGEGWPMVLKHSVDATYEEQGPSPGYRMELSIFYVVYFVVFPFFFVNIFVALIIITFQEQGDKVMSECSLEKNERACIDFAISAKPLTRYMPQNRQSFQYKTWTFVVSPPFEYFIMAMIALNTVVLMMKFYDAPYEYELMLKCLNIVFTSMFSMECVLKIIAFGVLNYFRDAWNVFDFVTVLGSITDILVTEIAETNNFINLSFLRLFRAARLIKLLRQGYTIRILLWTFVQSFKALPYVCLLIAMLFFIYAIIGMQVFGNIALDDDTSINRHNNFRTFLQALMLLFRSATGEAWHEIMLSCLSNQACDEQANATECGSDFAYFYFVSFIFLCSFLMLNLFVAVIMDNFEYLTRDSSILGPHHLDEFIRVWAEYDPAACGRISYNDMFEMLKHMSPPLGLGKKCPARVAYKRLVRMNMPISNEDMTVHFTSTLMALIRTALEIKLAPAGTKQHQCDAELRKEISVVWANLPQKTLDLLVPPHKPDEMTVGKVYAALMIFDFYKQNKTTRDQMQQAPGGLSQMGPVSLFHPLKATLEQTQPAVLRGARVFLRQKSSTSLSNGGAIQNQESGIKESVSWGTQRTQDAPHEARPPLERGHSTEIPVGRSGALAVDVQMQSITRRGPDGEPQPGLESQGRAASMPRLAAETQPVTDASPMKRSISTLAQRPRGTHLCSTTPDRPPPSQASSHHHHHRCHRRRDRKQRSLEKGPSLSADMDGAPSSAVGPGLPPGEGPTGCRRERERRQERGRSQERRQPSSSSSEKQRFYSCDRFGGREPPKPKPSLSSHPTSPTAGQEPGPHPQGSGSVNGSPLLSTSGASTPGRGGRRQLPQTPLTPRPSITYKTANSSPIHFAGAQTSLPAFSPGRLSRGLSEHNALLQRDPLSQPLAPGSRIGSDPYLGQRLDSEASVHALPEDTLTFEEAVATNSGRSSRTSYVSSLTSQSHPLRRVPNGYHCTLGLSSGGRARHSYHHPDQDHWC
T1 sequence (P54284 whole entry partner): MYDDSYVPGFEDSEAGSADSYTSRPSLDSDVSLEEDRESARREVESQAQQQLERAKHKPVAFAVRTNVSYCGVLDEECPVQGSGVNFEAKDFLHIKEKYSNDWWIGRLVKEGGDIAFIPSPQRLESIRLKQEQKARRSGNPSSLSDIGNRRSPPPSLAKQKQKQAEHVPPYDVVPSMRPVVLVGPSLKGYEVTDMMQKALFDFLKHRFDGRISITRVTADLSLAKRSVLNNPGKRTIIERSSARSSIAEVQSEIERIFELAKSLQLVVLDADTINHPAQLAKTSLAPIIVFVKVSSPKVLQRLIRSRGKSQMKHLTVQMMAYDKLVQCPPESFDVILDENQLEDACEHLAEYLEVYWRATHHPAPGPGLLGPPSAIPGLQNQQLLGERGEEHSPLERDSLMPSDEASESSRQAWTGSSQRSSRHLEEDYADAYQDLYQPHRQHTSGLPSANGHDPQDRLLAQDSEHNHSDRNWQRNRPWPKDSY
T1 sequence (P54289 25-956 partner limits assumed): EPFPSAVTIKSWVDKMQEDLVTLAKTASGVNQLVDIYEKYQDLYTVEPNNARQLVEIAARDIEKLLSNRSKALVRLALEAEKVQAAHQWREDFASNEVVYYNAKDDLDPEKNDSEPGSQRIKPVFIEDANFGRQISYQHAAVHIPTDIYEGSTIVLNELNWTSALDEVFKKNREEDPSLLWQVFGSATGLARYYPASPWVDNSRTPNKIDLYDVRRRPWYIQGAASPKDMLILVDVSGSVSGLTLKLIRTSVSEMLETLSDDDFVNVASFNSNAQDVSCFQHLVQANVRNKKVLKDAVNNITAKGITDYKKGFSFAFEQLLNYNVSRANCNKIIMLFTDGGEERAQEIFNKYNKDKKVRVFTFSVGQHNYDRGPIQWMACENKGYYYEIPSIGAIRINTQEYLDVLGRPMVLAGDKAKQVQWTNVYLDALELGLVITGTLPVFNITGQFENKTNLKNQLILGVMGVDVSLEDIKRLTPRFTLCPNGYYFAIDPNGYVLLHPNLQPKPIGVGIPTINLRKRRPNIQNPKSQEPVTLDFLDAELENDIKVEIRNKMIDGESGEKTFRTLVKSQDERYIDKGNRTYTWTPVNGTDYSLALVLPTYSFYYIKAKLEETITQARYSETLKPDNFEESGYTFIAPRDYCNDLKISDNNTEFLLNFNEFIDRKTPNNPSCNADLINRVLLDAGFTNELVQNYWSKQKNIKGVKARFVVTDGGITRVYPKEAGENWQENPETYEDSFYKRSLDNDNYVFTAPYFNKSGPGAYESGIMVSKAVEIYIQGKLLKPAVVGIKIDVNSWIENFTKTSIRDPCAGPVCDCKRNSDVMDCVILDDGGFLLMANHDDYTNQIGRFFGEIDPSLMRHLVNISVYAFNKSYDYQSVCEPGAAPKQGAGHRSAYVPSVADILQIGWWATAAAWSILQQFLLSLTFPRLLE
T1 sequence (P54289 957-1103 partner limits assumed): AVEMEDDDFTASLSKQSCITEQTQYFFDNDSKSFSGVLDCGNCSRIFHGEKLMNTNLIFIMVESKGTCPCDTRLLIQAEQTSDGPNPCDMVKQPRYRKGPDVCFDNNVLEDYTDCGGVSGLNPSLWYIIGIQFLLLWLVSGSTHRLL

Take `COc1ccccc1-n1nc2c(c1-c1ccc(Cl)cc1)CN(S(=O)(=O)Cc1ccccc1)C2` [Cpd 39, 5-(Benzylsulfonyl)-3-(4-chlorophenyl)-2-(2-methoxyphenyl)-2,4,5,6-tetrahydropyrrolo[3,4-c]pyrazole]: the pIC50 is 7.57.

In the case of `CCc1ccccc1-n1nc2c(c1-c1ccc(Cl)cc1)CN(C(=O)CNS(=O)(=O)C(F)(F)F)C2` [Cpd 13, N-{2-[3-(4-Chlorophenyl)-2-(2-ethylphenyl)-2,6-dihydropyrrolo[3,4-c]pyrazol-5(4H)-yl]-2-oxoethyl}-1,1,1-trifluoromethanesulfonamide], the inhibition at 1 µM turned out to be 59%.

As to `COc1cc(C)ccc1-n1nc2c(c1-c1ccc(Cl)cc1)CN(S(=O)(=O)N1CCC(C)CC1)C2` [Cpd 77, 3-(4-Chlorophenyl)-2-(2-methoxy-4-methylphenyl)-5-[(4-methylpiperidin-1-yl)sulfonyl]-2,4,5,6-tetrahydropyrrolo[3,4-c]pyrazole], the inhibition at 0.33 µM came out at 82% and the pIC50 is 7.25.

`CC(C)(C)OC(=O)N1Cc2nn(-c3ccccc3OC(F)(F)F)c(-c3ccc(Cl)cc3)c2C1` [Cpd 19, tert-Butyl 3-(4-chlorophenyl)-2-[2-(trifluoromethoxy)phenyl]-2,6-dihydropyrrolo[3,4-c]pyrazole-5(4H)-carboxylate]: the negative logarithm of the IC50 (pIC50) was 6.52.

For `COC(=O)c1ccc(N2Cc3nn(-c4ccccc4OC(F)(F)F)c(-c4ccc(Cl)cc4)c3C2)cc1` [Cpd 24, Methyl 4-[3-(4-chlorophenyl)-2-[2-(trifluoromethoxy)phenyl]-2,6-dihydropyrrolo[3,4-c]pyrazol-5(4H)-yl]benzoate], the inhibition at 1 µM was found to be 64%.

For the molecule `CC(C)(C)OC(=O)N1Cc2nn(-c3ccccc3C(F)(F)F)c(-c3ccc(Cl)cc3)c2C1` [Cpd 14, tert-Butyl 3-(4-chlorophenyl)-2-[2-(trifluoromethyl)phenyl]-2,6-dihydropyrrolo[3,4-c]pyrazole-5(4H)-carboxylate], the inhibition at 1 µM was 60%.

In the case of `COc1cc(F)ccc1-n1nc2c(c1-c1ccc(Cl)cc1)CN(S(=O)(=O)C1CCCCC1)C2` [Cpd 72, 3-(4-Chlorophenyl)-5-(cyclohexylsulfonyl)-2-(4-fluoro-2-methoxyphenyl)-2,4,5,6-tetrahydropyrrolo[3,4-c]pyrazole], the inhibition at 0.33 µM is 82% and the negative-log IC50 (pIC50) was 7.02.

On to `COc1ccccc1-n1nc2c(c1-c1ccc(Cl)cc1)CN(S(=O)(=O)CCOc1ccccc1)C2` [Cpd 43, 3-(4-Chlorophenyl)-2-(2-methoxyphenyl)-5-[(2-phenoxyethyl)sulfonyl]-2,4,5,6-tetrahydropyrrolo[3,4-c]pyrazole], for which the pIC50 is 7.00.

Regarding `CCc1ccccc1-n1nc2c(c1-c1ccc(Cl)cc1)CN(C(=O)c1ccccn1)C2` [Cpd 7, 3-(4-Chlorophenyl)-2-(2-ethylphenyl)-5-(pyridin-2-ylcarbonyl)-2,4,5,6-tetrahydropyrrolo[3,4-c]pyrazole], the inhibition at 1 µM stood at 58%.

`CCc1ccccc1-n1nc2c(c1-c1ccc(Cl)cc1)CN(C(=O)c1cc(C)on1)C2` [Cpd 9, 3-(4-Chlorophenyl)-2-(2-ethylphenyl)-5-[(5-methylisoxazol-3-yl)carbonyl]-2,4,5,6-tetrahydropyrrolo[3,4-c]pyrazole]: the inhibition at 1 µM amounted to 63%.

On to `CN(C)S(=O)(=O)N1Cc2nn(-c3ccccc3OCC(F)(F)F)c(-c3ccc(Cl)cc3)c2C1` [Cpd 90, 3-(4-Chlorophenyl)-N,N-dimethyl-2-[2-(2,2,2-trifluoroethoxy)phenyl]-2,6-dihydropyrrolo[3,4-c]pyrazole-5(4H)-sulfonamide], for which the inhibition at 0.33 µM worked out at 80% and the negative-log IC50 (pIC50) was 7.07.

In the case of `N#Cc1ccc(N2Cc3nn(-c4ccccc4OC(F)(F)F)c(-c4ccc(Cl)cc4)c3C2)cc1` [Cpd 25, 4-[3-(4-Chlorophenyl)-2-[2-(trifluoromethoxy)phenyl]-2,6-dihydropyrrolo[3,4-c]pyrazol-5(4H)-yl]benzonitrile], the inhibition at 1 µM stood at 57%.

`CCc1ccccc1-n1nc2c(c1-c1ccc(Cl)cc1)CN(C(=O)OC(C)(C)C)C2` [Cpd 1, tert-Butyl 3-(4-chlorophenyl)-2-(2-ethylphenyl)-2,6-dihydropyrrolo[3,4-c]pyrazole-5(4H)-carboxylate]: the pIC50 was 6.74.

For the molecule `CCc1ccccc1-n1nc2c(c1-c1ccc(Cl)cc1)CN(C(=O)COC)C2` [Cpd 10, 3-(4-Chlorophenyl)-2-(2-ethylphenyl)-5-(methoxyacetyl)-2,4,5,6-tetrahydropyrrolo[3,4-c]pyrazole], the pIC50 is 6.55.

With `CCc1ccccc1-n1nc2c(c1-c1ccc(Cl)cc1)CN(C(=O)CNS(C)(=O)=O)C2` [Cpd 12, N-{2-[3-(4-Chlorophenyl)-2-(2-ethylphenyl)-2,6-dihydropyrrolo[3,4-c]pyrazol-5(4H)-yl]-2-oxoethyl}methanesulfonamide], the pIC50 is 6.28.

In the case of `COc1ccc(-n2nc3c(c2-c2ccc(Cl)cc2)CN(S(=O)(=O)N2CCC(C)CC2)C3)c(F)c1` [Cpd 80, 3-(4-Chlorophenyl)-2-(2-fluoro-4-methoxyphenyl)-5-[(4-methylpiperidin-1-yl)sulfonyl]-2,4,5,6-tetrahydropyrrolo[3,4-c]pyrazole], the inhibition at 0.33 µM stood at 62% and the negative logarithm of the IC50 (pIC50) is 6.85.

In the case of `COc1ccccc1-n1nc2c(c1-c1ccc(Cl)cc1)CN(C(=O)CNC(=O)OC(C)(C)C)C2` [Cpd 29, tert-Butyl{2-[3-(4-chlorophenyl)-2-(2-methoxyphenyl)-2,6-dihydropyrrolo[3,4-c]pyrazol-5(4H)-yl]-2-oxoethyl}carbamate], the pIC50 is 6.74.

For the molecule `COc1ccc(-n2nc3c(c2-c2ccc(Cl)cc2)CN(S(C)(=O)=O)C3)c(C)c1` [Cpd 66, 3-(4-Chlorophenyl)-2-(4-methoxy-2-methylphenyl)-5-(methylsulfonyl)-2,4,5,6-tetrahydropyrrolo[3,4-c]pyrazole], the inhibition at 0.33 µM is 35%.

Turning to `CCc1ccccc1-n1nc2c(c1-c1ccc(Cl)cc1)CN(C(=O)c1ccco1)C2` [Cpd 8, 3-(4-Chlorophenyl)-2-(2-ethylphenyl)-5-(furan-2-ylcarbonyl)-2,4,5,6-tetrahydropyrrolo[3,4-c]pyrazole], the pIC50 was 6.22.

Take `COc1ccccc1-n1nc2c(c1-c1ccc(Cl)cc1)CN(S(=O)(=O)CCN1C(=O)c3ccccc3C1=O)C2` [Cpd 38, 2-(2-{[3-(4-Chlorophenyl)-2-(2-methoxyphenyl)-2,6-dihydropyrrolo[3,4-c]pyrazol-5(4H)-yl]sulfonyl}ethyl)-1H-isoindole-1,3(2H)-dione]: the negative-log IC50 (pIC50) was 7.28.

`O=C(N1Cc2nn(-c3ccccc3OC(F)(F)F)c(-c3ccc(Cl)cc3)c2C1)C(F)(F)F` [Cpd 21, 3-(4-Chlorophenyl)-5-(trifluoroacetyl)-2-[2-(trifluoromethoxy)phenyl]-2,4,5,6-tetrahydropyrrolo[3,4-c]pyrazole]: the negative logarithm of the IC50 (pIC50) is 6.52.

As to `COc1ccc(-n2nc3c(c2-c2ccc(Cl)cc2)CN(S(=O)(=O)C(C)C)C3)c(F)c1` [Cpd 79, 3-(4-Chlorophenyl)-2-(2-fluoro-4-methoxyphenyl)-5-[(1-methylethyl)sulfonyl]-2,4,5,6-tetrahydropyrrolo[3,4-c]pyrazole], the inhibition at 0.33 µM amounted to 61% and the negative logarithm of the IC50 (pIC50) is 6.74.

By pIC50 is commonly meant the IC50 on a negative log10 scale, so that one unit is a factor of ten. Broadly, the inhibition is the relative decrease from the control value, in per cent.
